Reference: paper PMC11395145, “The Archetypal Gamma-Core Motif of Antimicrobial Cys-Rich Peptides Inhibits H^+-ATPases in Target Pathogens” (International Journal of Molecular Sciences, 2024)

How the values were obtained:
[1] = test system: C. albicans cells; assay: Cell membrane permeability assay (propidium iodide, flow cytometry); format: cell-based, Candida albicans; conditions: 90 min, 37 °C, range of concentrations, PI 9 μM
Procedure: (§1) To determine whether Kal-1 and Kdp15 exert a permeabilizing effect on fungal or bacterial membranes, the cellular influx of the fluorescent nucleic-acid-binding dye propidium iodide (PI) was assessed. As PI itself cannot permeate through an intact phospholipid bilayer, only permeabilized cells take up PI, resulting in DNA intercalation and fluorescence.
(§2) Flow cytometry was used to assess the ability of peptides to permeabilize plasma membranes of cells in incorporation of the DNA intercalating dye propidium iodide (PI). C. albicans or P. aeruginosa cells (10^6 cells/mL) in Tris buffer were incubated with two-fold serially diluted peptides for 90 min at 37 °C and subsequently reincubated with PI (9 μM, final concentration) for 5 min. The suspensions were centrifuged at 1100× g for 10 min and subsequently washed with Tris buffer to remove any unbound PI. The peptide Lfpep was used to disrupt the cytoplasmic membrane (positive control). Cell fluorescence was monitored using a Cytomics FC500 Flow Cytometer (Beckman Coulter Life Sciences, Indianapolis, IN, USA). The PI fluorescence was excited at a wavelength of 488 nm and emission was registered at 610 nm. For each treatment, 20,000 events were measured. Data were acquired and analyzed using CytExpert 2.1 software. Results were expressed as the percentage of PI-positive cells with respect to the unstained cells (control). […]

[2] = test system: Candida albicans ATCC 10231; conditions: used in control assays; cited from earlier work
Procedure: First, we tested the antimicrobial activity of Kal-1 and a shorter Kal-1-derived peptide (Kdp15), both containing the complete γ-core signature of human lactoferrin, against C. albicans and P. aeruginosa. Microbicidal (cidal) activity was determined after 90 min of incubation (37 °C; pH 7.4) with a range of concentrations of each hLf-derived peptide. The hLf γ-core-containing peptides were microbicidal in a concentration-dependent way (Figure 1). […] The IC50 es ...

[3] = test system: Candida albicans ATCC 10231; assay: Microbicidal (spread-plate cell viability) assay, candidacidal activity; format: cell-based; conditions: for IC50: 90 min, 37 °C, 10 mM Tris-HCl pH 7.4, 10^6 cells/mL, CFU plating, estimated, read-out: IC50 (concentration that caused 50% reduction in viable counts) against C. albicans; for effect of high external K^+ on candidacidal activity: Tris buffer with 50 mM KCl vs without
Procedure: (§3) First, we tested the antimicrobial activity of Kal-1 and a shorter Kal-1-derived peptide (Kdp15), both containing the complete γ-core signature of human lactoferrin, against C. albicans and P. aeruginosa. Microbicidal (cidal) activity was determined after 90 min of incubation (37 °C; pH 7.4) with a range of concentrations of each hLf-derived peptide.
(§4) Figure 1 Cell viability and membrane permeabilization assays. C. albicans or P. aeruginosa (10^6 cells/mL) were incubated (90 min, 37 °C) with each peptide/protein at the indicated concentrations. Aliquots were plated on SDA or […], and colonies were counted after 24–48 h (C. albicans) or 24 h (P. aeruginosa). At each point, samples were stained with propidium iodide (PI) and intracellular PI incorporation, indicative of membrane permeabilization, was quantified by flow cytometry. The relative cell viability (blue lines) and cellular permeabilization (red lines) were calculated as the percentage of untreated cells. Human lactoferrin (hLf) and the peptide Lfpep were used as negative and positive controls of cellular permeabilization, respectively.
(§5) Microbial susceptibility to the peptides was determined in a spread-plate assay as described previously. Briefly, two-fold serially diluted peptides were incubated (37 °C) with approximately 10^6 cells/mL in Tris buffer (10 mM Tris-HCl, pH 7.4). After 90 min of incubation with the peptides, aliquots were removed and plated in duplicate on an appropriate agar plate for each species (SDA for C. albicans, TSA for P. aeruginosa). The plates were incubated for 24–48 h at 30 °C (C. albicans) or 24 h at 37 °C (P. aeruginosa) for enumeration. The cell viability values, expressed as colony forming units (CFUs), were determined relative to incubation without added peptides and represent the mean ± standard deviation (±SD) of at least three independent determinations. For inhibition assays, the cell suspensions were preincubated (15 min at 37 °C) with the corresponding inhibitors before the addition of peptides. Water-insoluble inhibitors were prepared in DMSO, such that the final assay volume was ≤1%. Other specific experimental inhibition conditions are described where appropriate. The IC50 value is expressed as the concentration that caused 50% reduction in viable counts.

[4] = test system: C. albicans cells; assay: Extracellular potassium measurement (K+ efflux, ICP-OES); format: cell-based, Candida albicans; conditions: 10^7 cells/mL, peptides 2 × IC50, 37 °C
Procedure: (§6) Figure 2 Potassium efflux induced by hLf γ-core-containing peptides. (A,D) Kinetics of K^+ efflux. C. albicans or P. aeruginosa (10^7 cells/mL) were incubated with kaliocin-1, Kdp15, human lactoferrin (hLf), and Lfpep. hLf and Lfpep were used as negative and positive controls of the membrane permeabilization, respectively. The effect of antifungal BM2 peptide was evaluated. The extracellular K^+ concentration was quantified at different times. (B,C,E) Effect of extracellular K^+ and TEA^+ on microbicidal activity. (B,E) microbicidal activity was assessed in Tris buffer in the absence or in the presence of 50 mM KCl or (C) 10 mM TEA^+. Cell viability was determined by plating aliquots of the cell suspensions. The percentage of viable cells was determined relative to that for cells incubated without peptides (control). […]
(§7) Measurements of potassium were performed using inductively coupled plasma optical emission spectrometry (ICP-OES) with a Perkin-Elmer Optima 2000 DV spectrometer. […] The percentage of cytosolic K^+ released from cell suspensions treated with Lfpep was determined in positive control assays. The total cellular K^+ content (100% value) was measured in the supernatant of cellular suspensions previously treated only with 0.5% (v/v) HClO4, heated for 1 h at 95 °C, and centrifuged to remove cell debris. […]

[5] = test system: P. aeruginosa cells; assay: as above; format: cell-based, Pseudomonas aeruginosa; conditions: 10^7 cells/mL, peptides 2 × IC50, 37 °C
Procedure: as §6, §7

[6] = test system: P. aeruginosa cells; assay: Cell membrane permeability assay (propidium iodide, flow cytometry); format: cell-based, Pseudomonas aeruginosa; conditions: 90 min, 37 °C, range of concentrations, PI 9 μM
Procedure: as §1, §2

[7] = test system: Pseudomonas aeruginosa 10145 (PAO1); assay: Microbicidal (spread-plate cell viability) assay, pseudomonacidal activity; format: cell-based; conditions: for IC50: 90 min, 37 °C, 10 mM Tris-HCl pH 7.4, 10^6 cells/mL, CFU plating, read-out: IC50 (concentration that caused 50% reduction in viable counts) against P. aeruginosa; for effect of high external K^+ on pseudomonacidal activity: Tris buffer with 50 mM KCl vs without
Procedure: as §3, §4, §5

[8] = test system: C. albicans cells; assay: Oxygen consumption measurement (Clark-type electrode); format: cell-based, Candida albicans; conditions: 5 × 10^6 cells/mL, peptides at IC50, piericidin A 32 μM, at least 30 min, 25 °C
Procedure: (§8) Figure 3 Effect of cellular respiration on the microbicidal activity of hLf γ-core-containing peptides. (A,C) Oxygen consumption was measured in C. albicans and P. aeruginosa cellular suspensions in the absence (control) or the presence of kaliocin-1 (Kal-1), Kdp15, or human lactoferrin (hLf), and piericidin A (positive control). (B,D) Effect of cellular respiration on the microbicidal activity of hLf γ-core-containing peptides. Cells (10^6 cells/mL) were pre-incubated (15 min, 37 °C) with 32 μM piericidin A and incubated for 90 min at 37 °C with the peptides hLf or BM2. The cell viability was determined by means of the plate counting method. The results are the mean ± SD from duplicates of at least three independent experiments. * p < 0.05, ** p < 0.01, and *** p < 0.001 were used.
(§9) C. albicans or P. aeruginosa cells were grown to the mid-logarithmic phase, washed twice in Tris buffer, and resuspended in the same buffer, as described in [9, 10]. Briefly, cells (5 × 10^6 cells/mL) were pre-incubated for 15 min at 37 °C with the peptides (IC50). […] Oxygen consumption was measured using a Clark-type oxygen electrode (Dual digital-model 20, Rank Brothers Ltd., Cambridge, UK) in a closed jacketed chamber maintained at 25 °C. […] The viability of the cells was determined at 30 min by removing aliquots from the oxygen chambers and plating the subsequent dilutions on SDA or TSA plates.

[9] = test system: P. aeruginosa cells; assay: as above; format: cell-based, Pseudomonas aeruginosa; conditions: 5 × 10^6 cells/mL, peptides at IC50, piericidin A 32 μM, at least 30 min, 25 °C
Procedure: as §8, §9

[10] = biological target: Pma1p H^+-ATPase (Candida albicans, UniProt P28877); conditions: starved C. albicans 10^7 cells/mL in 50 mM KCl, pre-incubated with peptide 2 × IC50, 2.5 mM glucose; control ~1.3 pH units
Procedure: C. albicans cells (10^7 cells/mL) in 50 mM KCl were preincubated with the peptides (2 × IC50) for 20 min. Glucose (final concentration of 2.5 mM) was then added to induce H^+ efflux via Pma1p H^+-ATPase, as indicated by the subsequent external acidification.
To measure the proton pumping activity of Pma1p H^+-ATPase, a glucose-induced acidification assay of the medium was performed as previously described [10]. Briefly, cultures of C. albicans cells were grown to the mid-log phase in SDB medium and washed twice in Tris buffer (pH 8.0). The cells were resuspended in 50 mM KCl and maintained for 18 h at 4 °C to reduce metabolic activity to a minimum (starvation conditions). To determine the external acidification, starved cells (~10^7 cells/mL) were incubated for 15 min at 30 °C in the absence or the presence of the peptides (2 × IC50). Human lactoferrin (20 μM) was used as a positive control. The initial pH of cellular suspension was adjusted with HCl to pH 6.6 (approx.) and glucose was immediately added (final concentration, 2.5 mM) to the cellular suspension. The pH of the medium was recorded at 1 min intervals for 20 min using a SevenMulti S50-K pH meter (Mettler-Toledo, Greifensee, Switzerland) with a calibrated electrode (InLab 413, Mettler-Toledo) with constant stirring. Every experiment was performed using two replicates and repeated independently three times.

[11] = test system: C. albicans cells; assay: Measurement of intracellular ATP (BacTiter-Glo); format: cell-based, Candida albicans; conditions: C. albicans 10^6 cells/mL, candidacidal concentration, 90 min, 37 °C; BM2 0.25 μM
Procedure: Total ATP was measured by using the BacTiter-Glo^TM Microbial Cell Viability Assay (Promega Co., Madison, WI, USA) according to the manufacturer’s instructions. […] Aliquots (100 μL) were incubated (90 min at 37 °C) with kaliocin-1, Kdp15, or human lactoferrin and the BM2 peptide (positive control). One hundred microliters of incubation mix was transferred into a 96-well opaque white plate, mixed with an equal volume of the BacTiter-Glo reagent, and incubated for 15 min in the dark. The reagent used a thermostable luciferase to produce luminescence in an ATP-dependent manner. The emitted luminescence was detected by using a Varioskan Flash multimode reader (Thermo Scientific, Waltham, MA, USA) with a 10 s of shaking and 1 s integration time. A calibration curve was prepared for each experiment, with ATP standards ranging from 1 to 1000 nM. For assays performed in the presence of the BM2 peptide, samples were preincubated with 0.25 μM BM2 for 30 min at 37 °C. All the tests were performed in triplicate at least four times.

[12] = cells pre-incubated 15 min, 37 °C with 32 μM piericidin A, then 90 min with peptide

Sequence of Pma1p H^+-ATPase (P28877 whole entry): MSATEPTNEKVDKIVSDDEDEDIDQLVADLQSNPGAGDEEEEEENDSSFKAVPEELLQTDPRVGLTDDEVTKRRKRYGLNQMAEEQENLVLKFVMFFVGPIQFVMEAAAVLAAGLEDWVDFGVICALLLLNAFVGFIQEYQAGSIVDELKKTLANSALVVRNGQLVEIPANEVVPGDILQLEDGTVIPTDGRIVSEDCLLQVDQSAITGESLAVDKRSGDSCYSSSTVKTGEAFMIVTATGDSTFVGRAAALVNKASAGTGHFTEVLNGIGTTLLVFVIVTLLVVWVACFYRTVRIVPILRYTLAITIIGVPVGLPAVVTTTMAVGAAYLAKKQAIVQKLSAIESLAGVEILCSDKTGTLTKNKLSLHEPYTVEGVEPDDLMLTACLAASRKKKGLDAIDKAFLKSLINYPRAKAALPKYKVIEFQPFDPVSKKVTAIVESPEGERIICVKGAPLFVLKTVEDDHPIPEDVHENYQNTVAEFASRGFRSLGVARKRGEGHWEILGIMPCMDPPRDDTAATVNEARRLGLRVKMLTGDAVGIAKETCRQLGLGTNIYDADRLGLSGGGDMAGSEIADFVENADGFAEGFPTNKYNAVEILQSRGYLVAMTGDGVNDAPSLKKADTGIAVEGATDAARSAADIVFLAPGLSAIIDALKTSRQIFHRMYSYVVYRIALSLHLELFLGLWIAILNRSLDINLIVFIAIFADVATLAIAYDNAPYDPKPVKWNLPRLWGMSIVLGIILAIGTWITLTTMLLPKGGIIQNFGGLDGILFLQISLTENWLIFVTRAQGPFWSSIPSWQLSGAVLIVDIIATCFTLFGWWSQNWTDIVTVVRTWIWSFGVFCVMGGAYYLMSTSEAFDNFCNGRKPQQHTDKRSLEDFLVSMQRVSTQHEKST

Sequence	PI fluorescent cells (plasma membrane permeabilization), C. albicans [1]	previously reported microbicidal concentration (organism not given) [2] [µM]	IC50 [3] [µM]	effect of high external K^+ on candidacidal activity [3]	K^+ efflux from C. albicans, in words [4]	K^+ efflux from P. aeruginosa, in words [5]	PI fluorescent cells (plasma membrane permeabilization), P. aeruginosa [6]	IC50 [7] [µM]	effect of high external K^+ on pseudomonacidal activity [7]	oxygen consumption of C. albicans in presence of the substance [8]	oxygen consumption of P. aeruginosa in presence of the substance [9]	decrease of external pH after 20 min (glucose-induced acidification) [10]	effect of mitochondrial ATP synthase inhibition (oligomycin A) on candidacidal activity ([3]; cells pre-incubated 15 min, 37 °C with 16 μg/mL oligomycin A)	effect of respiration inhibition (piericidin A) on candidacidal activity [3, 12]	effect of Tok1p K^+ channel block (TEA^+) on candidacidal activity ([3]; cells pre-incubated 15 min with 10 mM TEA^+)	IC50 against C. albicans relative to IC50 of native hLf (fold greater) ([3]; vs hLf IC50 3 μM) [fold]	effect of respiration inhibition (piericidin A) on pseudomonacidal activity [7, 12]	increment in intracellular ATP (iATP) level compared to untreated control [11]
TKCFQWQRNMRKVRGPPVSCIKR [Lfpep, antimicrobial hLf-derived peptide without a γ-core motif that permeabilizes bacterial and fungal cytoplasmic membranes, reference compound]	significant increase	50	20	not modified	rapid and increased K^+ release	rapid and increased K^+ release	significant increase	0.5	not modified									
NLCRLCAGTGENKCA [Kdp15, 15-mer kaliocin-1-derived peptide containing the complete hLf γ-core]	not significantly increased		100	seemed to protect			not significantly increased	3	seemed to protect	equal to that of untreated (control) cells	equal to that of untreated (control) cells	approximately 0.5 pH units	less susceptible	less susceptible	less susceptible	~33	less susceptible	~ 5 fold
